Patent US20250339569A1, “CARBONIC ANHYDRASE IX LIGANDS” (priority 2021, published 2025)
Where two headings read alike, the source gives them in different places.

Columns and labels:
[1] = Biodistribution study (SPECT/CT) in HT-29 tumor-bearing mice; type: in vivo, NMRI nude mice; conditions: female, NMRI nude, mouse, in vivo, iv, total radioactivity, HT-29, In-111-labeled, Mean ± SEM
Description: (§1) The effect on tumor uptake of prior injection of gelofusine for kidney protection was investigated in mice bearing the SK-RC-52 tumor. Biodistribution was evaluated using in vivo SPECT/CT imaging. Prior to the in vivo study the compounds (ligands) were initially radiolabeled with In-111 and the stability of radiolabeled compounds was evaluated in buffer at three different timepoints.
(§2) The study was performed in female NMRI nude mice (approximately 6 weeks of age) from Janvier Labs, France, housed up to 5 mice per cage.
(§3) The column was washed with 2 mL water, and then the final product was eluted from the column in EtOH solution (50%) • The sample was formulated in PBS to the final concentration of 150 MBq/mL and 5 nmol/mL.
(§4) SK-RC-52 cells were cultured in RPMI 1640 with GlutaMax-I (Thermo Fisher Scientific #61870044) supplemented with 10% fetal bovine serum+1% penicillin/streptomycin, harvested, washed twice in RPMI 1640 and resuspended at 2×10^7 cells/mL in RPMI 1640. HT-29 cells were cultured in McCoy's 5a Medium Modified (Sigma #M9309). For inoculation of HT-29 cells, cells were harvested, washed twice in PBS and resuspended at 5×10^7 cells/mL in PBS. Cells were kept on ice until inoculation.
(§5) Animals were anaesthetized (isoflurane, 2-4% in ambient air supplemented with 100% 02) prior to tumor inoculation. The tumor cells (100 μL suspension of either SK-RC-52 cells (2×10^6 cells/animal) or HT-29 cells (5×10^6 cells/animal)) were subcutaneously inoculated in the right flank using a 1-mL syringe equipped with a 27 G needle. Tumor growth and animal weight were measured twice per week. Tumor size was measured by caliper and the volume was estimated using the following formula: 0.52×(length×width^2). When tumor sizes reached 150-250 mm^3, animals were randomized into groups (n=3) of similar average tumor volume and body weight.
(§6) Animals were injected intravenously with In-111-labeled compounds (single bolus, 22.3-31.2 MBq, ˜1 nmol ligand, injection volume: 100 μL) in the lateral tail vein using a 29 G syringe.
(§7) CT was performed with helical scan, 300 ms exposure, reconstruction resolution of 250 μm. SPECT was performed with multi-pinhole scan and a 30 s frame time. For the quantification of the radioactivity uptake, regions of interests (ROIs) were drawn over the tumor, kidney, liver, and heart (estimate of blood) identified on the images. Uptake was expressed as percent of injected dose per gram tissue (% ID/g).

HT-29 tumor = experiment: as above; type: in vivo, NMRI nude mice; conditions: HT-29, In-111-labeled
Description: as §1, §2, §3, §4, §5, §6, §7

mouse CAIX = molecular target: T1, mouse CAIX (Mus musculus, UniProt Q8VHB5); experiment: Radioligand saturation binding on CHO-msCAIX
T1 construct: host or cells: CHO-VGT / CHO cells
Description: After attainment of equilibrium, the cells were harvested, and the bound fraction of the compounds was measured. The resulting saturation binding data were analyzed using Graph Pad Prism 8.3.
CHO cells transfected with human, dog, and mouse CAIX (CHO-huCA9 T04J-1/20 K1, CHO-dogCA9 T05J-9/20 K4, CHO-murCA9 T05J-3/20 K4) were obtained from InSCREENex (Germany).
A molar excess of 3BP-3565 was used as a blocking peptide to assess non-specific binding in autoradiographic studies. 3BP-3565 binds with a similar affinity to CAIX and blocks binding sites of test compounds. For the blocking solution, a 10 mM stock solution of 3BP-3565 was prepared by dissolution in DMSO.
CHO cells were maintained in Ham's medium supplemented with 10% fetal bovine serum, 2 mM L-glutamine, 100 U/mL Penicillin and 0.1 mg/mL streptomycin under standard cell culture conditions. The cells were grown in uncoated cell culture flasks (150 cm^2, Biochrom) to subconfluence and then split 1:2-1:3. Approximately 24 hours before the assay, cells were detached by incubation with Accutase and carefully tapping the flasks. Detached cells were resuspended in medium and collected by centrifugation (300 g, 5 min, RT). Cell pellets were resuspended in cell culture medium and counted using a particle counter (CASY Model TT, Scharfe Systems, Germany). Cell concentrations were adjusted to 3×10^5 mL^−1, and 1.000 μL per well of the suspension were dispensed into poly-D-lysine-coated flat-clear-bottom 24 well plates.
Compound radiolabeling was performed as follows. […] Then, 25 mg/mL methionine in 1 M sodium acetate buffer pH 5 was added at a final concentration of 0.1 M sodium acetate. Subsequently, the mixture was heated to 80° C. for 25 min, followed by cooling for 5 minutes. Finally, 20 μL of 200 mg/mL ascorbic acid solution, 2.5 μL of 5 mg/mL DTPA and 2.5 μL of 5% TWEEN-20 per 100 μL reaction mixture were added, resulting in the concentrated study solution. For quality control, an aliquot of the labeling solution was diluted 1:40 with 0.1% TWEEN-20 in 0.1 M sodium acetate buffer pH 5. Five microliters of the diluted labeling solution were injected onto a Poroshell SB-C18 2.1×50 mm, 2.7 μm column. HPLC analysis was performed as follows: Gradient A: H2O, 0.1% TFA, Gradient B: Acetonitrile (MeCN), gradient from 5% B to 70% B within 15 min, flow rate of 0.5 mL/min; detector: NaI, DAD 215 nm. The peak eluting with the dead volume represents free radionuclide, the peak eluting with the ligand-specific retention time as determined with a non-labeled sample represents the radiolabeled compound.
The radioligand saturation binding on CHO-msCAIX was determined as follows. […] Their associated radioactivity was counted using a gamma counter and normalized to the measured protein concentration of each well. […]

T1 sequence (Q8VHB5 32-437): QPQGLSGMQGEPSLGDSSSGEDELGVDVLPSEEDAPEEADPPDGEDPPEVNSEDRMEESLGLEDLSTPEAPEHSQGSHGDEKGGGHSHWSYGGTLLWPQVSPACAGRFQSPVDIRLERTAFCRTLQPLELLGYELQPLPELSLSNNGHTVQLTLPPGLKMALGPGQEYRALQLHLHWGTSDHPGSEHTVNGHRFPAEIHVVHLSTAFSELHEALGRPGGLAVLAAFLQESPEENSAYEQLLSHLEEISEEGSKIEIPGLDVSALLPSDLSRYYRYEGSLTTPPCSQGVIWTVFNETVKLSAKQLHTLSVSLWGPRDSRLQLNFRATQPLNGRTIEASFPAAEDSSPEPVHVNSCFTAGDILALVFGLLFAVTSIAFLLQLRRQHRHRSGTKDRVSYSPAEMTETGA

In the case of `CC(C)C[C@@H]1NC(=O)[C@H](Cc2cccc(NC(=O)CCCS(N)(=O)=O)c2)NC(=O)[C@H](CC(=O)O)NC(=O)[C@H]2CCCN2C(=O)[C@H](CCC(=O)O)NC(=O)[C@@H](NC(=O)[C@H](CCC(N)=O)NC(=O)CN2CCN(C(=O)CN3CCN(CC(=O)O)CCN(CC(=O)O)CCN(CC(=O)O)CC3)CC2)CSCc2cccc(c2)CSC[C@@H](C(N)=O)NC(=O)[C@H](CO)NC(=O)[C@H](Cc2c[nH]c3ccccc23)NC(=O)[C@H]([C@@H](C)O)NC1=O` [DPI-4452, DOTA-PPAc-Gln-[Cys(3MeBn)-Glu-pro-Asp-Af3(Cpsu)-Leu-Thr-Trp-Ser-Cys]-NH2], the tissue uptake at 4 h ([1]; read-out: Blood uptake at 4 h p.i.) is reported as 0.04 ± 0.002 %ID/g, the tissue uptake at 24 h ([1]; read-out: Kidney uptake at 24 h p.i.) is reported as 1.41 ± 0.11 %ID/g and the tissue uptake at 4 h ([1]; read-out: Liver uptake at 4 h p.i.) is reported as 0.12 ± 0.005 %ID/g. For the same compound, the “Time to peak uptake in tumor” value (HT-29 tumor) was 2 h and the “% remaining tumor uptake at 24 h p.i.” value (HT-29 tumor; Mean ± SEM) was 65.8 ± 3.8%.
With `CC(C)C[C@@H]1NC(=O)[C@H](Cc2cccc(NC(=O)CCCS(N)(=O)=O)c2)NC(=O)[C@H](CC(=O)O)NC(=O)[C@H]2CCCN2C(=O)[C@H](CCC(=O)O)NC(=O)[C@@H](NC(=O)[C@H](CCC(N)=O)NC(=O)CN2CCN(C(=O)CN3CCN(CC(=O)O)CCN(CC(=O)O)CCN(CC(=O)O)CC3)CC2)CSCc2cccc(c2)CSC[C@@H](C(N)=O)NC(=O)[C@H](CO)NC(=O)[C@H](Cc2c[nH]c3ccccc23)NC(=O)[C@H]([C@@H](C)O)NC1=O` [[^111In]In-DPI-4452, metal not drawn] the Kd (mouse CAIX) was 63.1 nM and the “Mean pKd ± SD” value (mouse CAIX; CHO-msCAIX, single experiment) was 7.2.
